The text below walks through data of PMC12845261, “Design, Synthesis, and Biological Evaluation of N-Acyl-Hydrazone-Linked Quinazolinone Derivatives with Antioxidant, Antimicrobial, and Anticancer Potential” (Pharmaceuticals, 2025).

Data set [1] relates to HT-29 (human colorectal adenocarcinoma). The experiment in a line: Cytotoxicity, MTT assay. Type of data set: cell-based. The settings on record: 24 h; for Cell viability: at corresponding concentrations (comparison with 5-FU), concentration not named; for Reduction of cell viability: at 50 µM and 25 µM, compared to the control; for Cytotoxic effect (in words): 3.125 to 50 µM.

A short description of data set [2]: Total antioxidant capacity (TAC), DPPH method. The settings on record: 30 min, 517 nm, compound stock 1 mg/mL in methanol, reference ascorbic acid TAC = 100%. On the procedure: The total antioxidant capacity (TAC) was evaluated using diphenyl-1-picrylhydrazyl free radical (DPPH) method. The TAC value was determined in relation to the antioxidant capacity of the reference (ascorbic acid, TAC = 100%). […] The maximum value was recorded for 1c (~45%), followed by 1f and 1a (~43%), while the minimum for 1e (~19%).
In this study, the TAC values were obtained using the most-known DPPH method, in which the intense violet colour of the free radical solution is decreasing. Stock solutions of compounds 1a–1f and 2 were prepared in absolute methanol at a concentration of 1 mg/mL. A stock solution of 2,2-diphenyl-1-picrylhydrazyl free radical was obtained in the same solvent, at a concentration of 2 × 10^−4 M. To 1.8 mL of DPPH solution was added 0.2 mL of each solution of the compounds 1a–1f and 2 and the mixture was left in the dark for 30 min, followed by measurements of the absorbance at 517 nm. The following equation was used to calculate TAC: TAC%=Abs0 min−Abs30 min/Abs0min·100 where Abs0 min refers to the initial absorbance of the DPPH free radical solution, and Abs 30 min refers to the absorbance of the solution of DPPH and the added compound after 30 min. Ascorbic acid was used as a reference.

The test system of the next data set is P. aeruginosa ATCC 27853. The experiment in a line: Microbicidal activity (MMC). Type of data set: cell-based. The settings on record: DMSO control 2.5. On the procedure:
(§1) For the evaluation of antimicrobial activity, the following reference strains were used: S. aureus ATCC 25923, E. faecalis ATCC 29212, E. coli ATCC 25922, P. aeruginosa ATCC 27853 and C. albicans ATCC 10231. To determine the MMCs, 5 μL of culture was taken from each well and distributed on solid medium. The plates were incubated for 20–24 h at 37 °C. The lowest concentration at which no microbial growth was observed was considered MMC.

A further data set relates to C. albicans ATCC 10231. The experiment in a line: Microbicidal activity (MMC). Type of data set: cell-based. Particulars: DMSO control 5. How it is done: as §1
A further data set concerns S. aureus ATCC 25923. The experiment in a line: Microbicidal activity (MMC). In kind it is cell-based. The settings on record: DMSO control 5. How it is done:
as §1

Data set [3] can be described thus: Qualitative solubility in solvents. In kind it is physicochemical. How it is done:
The 2–5 mL reaction vials were loaded with a magnetic stirrer, 1 mmol of each reactant, acetohydrazide 2 and benzaldehydes, 4–4.5 mL of anhydrous ethanol and 2 drops of glacial acetic acid. Reaction conditions included 5 min of pre-stirring, followed by 40 min of irradiation at 100 °C, with the absorbance level set to “high”. The vials were left overnight in a refrigerator. The precipitates formed were filtered under vacuum, washed with cold ethanol and dried at room temperature. Thin-layer chromatography was performed to analyze and monitor the reaction. The compounds were confirmed by spectroscopic methods (FT-IR, ^1H-NMR and ^13C-NMR spectroscopy and mass spectrometry) and characterized by melting points, solubility and retention factors (Rf).

Data set [4] has as its system VERO (non-tumoral African green monkey kidney epithelial cells). The experiment in a line: Cytotoxicity, MTT assay. In kind it is cell-based. The settings on record: 24 h; for Cytotoxic effect on normal cells (in words): 3.125 to 50 µM.
The next data set concerns E. faecalis ATCC 29212. The experiment in a line: Microbicidal activity (MMC). Type of data set: cell-based. Particulars: DMSO control >5. On the procedure:
as §1

In another data set the test system is E. coli ATCC 25922. Description: Microbicidal activity (MMC). In kind it is cell-based. The settings on record: DMSO control 5. On the procedure: as §1
[5] abbreviates: at lower concentrations (below 50 µM).

pIC50: −log10 of the molar value. Where “and” joins values, the source holds several entries; their conditions need not be identical. Equal values may be shown once. Read-outs that look alike come from different tables or passages of the source.

As for `Cc1nc2ccccc2c(=O)n1CC(=O)N/N=C/c1cc(Br)ccc1O` [Compound 1a, N′-[(E)-(5-bromo-2-hydroxyphenyl)methylidene]-2-(2-methyl-4-oxoquinazolin-3(4H)-yl)acetohydrazide], in [1], the Cell viability result is reported as “below 50%”. In addition, in data set [1] (Homo sapiens, 50 µM, relative to untreated control, read-out: Cell viability), the viability at 50 µM was roughly 50%. For the same compound, the pIC50 in data set [1] (Homo sapiens, tested range 3.125 to 50 µM, read-out: IC50) was roughly 4.30. The “TAC (%)” value in data set [2] is on record as 42.7%. For the same compound, the entries for the “MMC” value in the data set on P. aeruginosa ATCC 27853, in the data set on C. albicans ATCC 10231 and with S. aureus ATCC 25923 were 2.5 mg/mL, 5 mg/mL and greater than 5 mg/mL, respectively. Also, the Solubility result in data set [3] (DMF) was “soluble”; in data set [3] (DMSO) it was “soluble”; in data set [3] (acetone) it was “soluble”; in data set [3] (methanol), “slightly soluble”; in data set [3] (water), “insoluble”.

As for `Cc1nc2ccccc2c(=O)n1CC(=O)N/N=C/c1cc(Br)cc(Br)c1O` [Compound 1b, N′-[(E)-(3,5-bromo-2-hydroxyphenyl)methylidene]-2-(2-methyl-4-oxoquinazolin-3(4H)-yl)acetohydrazide], the Cell viability entry in data set [1] is “below 50%”. Moreover, the “Reduction of cell viability” value in [1] is given as “approximately 50%”. The “Effect on cell viability (in words)” value in data set [4] (setting [5]) is on record as “statistically significant increase in cell viability”. In data set [2], the “TAC (%)” value is 38.9%. In addition, the “MMC” value with P. aeruginosa ATCC 27853 is recorded as 5 mg/mL; in the data set with C. albicans ATCC 10231 it was 5 mg/mL; in the data set with E. faecalis ATCC 29212 it was greater than 5 mg/mL; with S. aureus ATCC 25923, greater than 5 mg/mL. The Solubility result is “slightly soluble” in [3] (2-propanol); “soluble” in data set [3] (DMF); “soluble” in [3] (DMSO); “soluble” in data set [3] (acetone); “slightly soluble” in data set [3] (methanol); “insoluble” in data set [3] (water).

For `COc1cccc(/C=N/NC(=O)Cn2c(C)nc3ccccc3c2=O)c1O` [Compound 1c, N′-[(E)-(2-hydroxy-3-methoxyphenyl)methylidene]-2-(2-methyl-4-oxoquinazolin-3(4H)-yl)acetohydrazide], the “Cytotoxic effect (in words)” value in [1] is on record as “potent inhibitory effects at all concentrations tested”. Moreover, the IC50 result in [1] (tested range 3.125 to 50 µM) is “did not produce a viability drop sufficient to determine an IC50 value”. Also, in data set [2], the “TAC (%)” value worked out at 45.1%. Besides, the “MMC” value in the data set on P. aeruginosa ATCC 27853 is on record as 2.5 mg/mL; in the data set with C. albicans ATCC 10231, 5 mg/mL; in the data set with E. faecalis ATCC 29212, greater than 5 mg/mL; in the data set with E. coli ATCC 25922, 5 mg/mL; in the data set on S. aureus ATCC 25923, 5 mg/mL. Also, the Solubility result in data set [3] (DMF) is “soluble”; in data set [3] (DMSO), “soluble”; in data set [3] (acetone), “soluble”; in data set [3] (methanol) it was “slightly soluble”; in [3] (water) it was “insoluble”.

Take `COc1ccc(/C=N/NC(=O)Cn2c(C)nc3ccccc3c2=O)c(O)c1` [Compound 1d, N′-[(E)-(2-hydroxy-4-methoxyphenyl)methylidene]-2-(2-methyl-4-oxoquinazolin-3(4H)-yl)acetohydrazide]: the Cell viability entry in data set [1] is listed as “below 50%”. Further, in data set [1], the “Reduction of cell viability” value is reported as “approximately 50%”. The “Effect on cell viability (in words)” value in data set [4] (at 50 µM, compared to the untreated control) is recorded as “statistically significant decrease in viability”; in [4] (setting [5]), “statistically significant increase in cell viability”. For the same compound, the “TAC (%)” value in data set [2] is 19.3% and 20.5%. Besides, the “MMC” value in the data set on C. albicans ATCC 10231 was greater than 5 mg/mL; in the data set with E. faecalis ATCC 29212 it was greater than 5 mg/mL; in the data set with E. coli ATCC 25922, 5 mg/mL; with S. aureus ATCC 25923, greater than 5 mg/mL. Besides, the Solubility entry in [3] (DMF) is reported as “soluble”; in [3] (DMSO), “soluble”; in data set [3] (acetone) it was “soluble”; in data set [3] (methanol), “slightly soluble”; in data set [3] (water), “insoluble”.

For the compound `COc1ccc(O)c(/C=N/NC(=O)Cn2c(C)nc3ccccc3c2=O)c1` [Compound 1e, N′-[(E)-(2-hydroxy-5-methoxyphenyl)methylidene]-2-(2-methyl-4-oxoquinazolin-3(4H)-yl)acetohydrazide], the “Cytotoxic effect (in words)” value in [1] is recorded as “weaker cytotoxic activity”. The “Cytotoxic effect on normal cells (in words)” value in data set [4] is recorded as “strong cytotoxic effects”. In addition, the “TAC (%)” value in data set [2] was found to be 19.3%. Also, the “MMC” value in the data set on P. aeruginosa ATCC 27853 is listed as 5 mg/mL; in the data set with E. faecalis ATCC 29212, greater than 5 mg/mL; with E. coli ATCC 25922, 5 mg/mL; in the data set on S. aureus ATCC 25923 it was 5 mg/mL. In addition, the Solubility result in [3] (DMF) is listed as “soluble”; in data set [3] (DMSO) it was “soluble”; in data set [3] (methanol), “slightly soluble”; in [3] (water), “insoluble”.

`COc1cc(/C=N/NC(=O)Cn2c(C)nc3ccccc3c2=O)cc([N+](=O)[O-])c1O` [Compound 1f, N′-[(E)-(4-hydroxy-3-methoxy-5-nitrophenyl)methylidene]-2-(2-methyl-4-oxoquinazolin-3(4H)-yl)acetohydrazide]: in [1], the “Cytotoxic effect (in words)” value was “no inhibitory effect”. The “Cytotoxic effect on normal cells (in words)” value in data set [4] is reported as “well tolerated”. Also, the “TAC (%)” value in [2] turned out to be 43.4%. In addition, the “MMC” value is on record as 2.5 mg/mL in the data set with P. aeruginosa ATCC 27853, 5 mg/mL in the data set on C. albicans ATCC 10231, greater than 5 mg/mL with E. faecalis ATCC 29212 and 5 mg/mL with S. aureus ATCC 25923. The Solubility entry in data set [3] (DMF) is reported as “soluble”; in data set [3] (DMSO) it was “soluble”; in [3] (acetone) it was “soluble”; in data set [3] (methanol), “slightly soluble”; in data set [3] (water), “insoluble”.

As for `Cc1nc2ccccc2c(=O)n1CC(=O)NN` [Compound 2, 2-(2-methyl-4-oxoquinazolin-3(4H)-yl)acetohydrazide], the “Cytotoxic effect (in words)” value in [1] is listed as “overall increase in cell viability at all tested concentrations”. In addition, the “Cytotoxic effect on normal cells (in words)” value in [4] is “well tolerated”. Moreover, the “TAC (%)” value in data set [2] was determined as 19.7%. For the same compound, the “MMC” value is 5 mg/mL in the data set on P. aeruginosa ATCC 27853, 5 mg/mL with C. albicans ATCC 10231, greater than 5 mg/mL with E. faecalis ATCC 29212 and greater than 5 mg/mL in the data set with S. aureus ATCC 25923.
